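All cell lines were grown in 96-well plates and treated with compound for 48 hours. TGI denotes the concentration required for complete inhibition of growth.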
Experiments:
Experiment in all cases: growth of human tumour cells (NCI), 48 h
M14 melanoma = tested on: M14 melanoma
LOX IMVI melanoma = tested on: LOX IMVI melanoma
HT29 colon = tested on: HT29 colon
MOLT-4 leukemia = tested on: MOLT-4 leukemia
SK-OV-3 ovarian = tested on: SK-OV-3 ovarian
UO-31 renal = tested on: UO-31 renal
U251 CNS = tested on: U251 CNS
IGROV1 ovarian = tested on: IGROV1 ovarian
SW-620 colon = tested on: SW-620 colon
SK-MEL-2 melanoma = tested on: SK-MEL-2 melanoma
NCI-H460 lung = tested on: NCI-H460 lung
K-562 leukemia = tested on: K-562 leukemia
OVCAR-5 ovarian = tested on: OVCAR-5 ovarian
SNB-19 CNS = tested on: SNB-19 CNS
UACC-62 melanoma = tested on: UACC-62 melanoma
HOP-62 NSCLC = tested on: HOP-62 NSCLC
HCT-15 colon = tested on: HCT-15 colon
HS 578T breast = tested on: HS 578T breast
DU-145 prostate = tested on: DU-145 prostate
MDA-MB-231 breast = tested on: MDA-MB-231 breast

Compound	TGI (M14 melanoma) [µM]	TGI (LOX IMVI melanoma) [µM]	TGI (HT29 colon) [µM]	TGI (MOLT-4 leukemia) [µM]	TGI (SK-OV-3 ovarian) [µM]	TGI (UO-31 renal) [µM]	TGI (U251 CNS) [µM]	TGI (IGROV1 ovarian) [µM]	TGI (SW-620 colon) [µM]	TGI (SK-MEL-2 melanoma) [µM]	TGI (NCI-H460 lung) [µM]	TGI (K-562 leukemia) [µM]	TGI (OVCAR-5 ovarian) [µM]	TGI (SNB-19 CNS) [µM]	TGI (UACC-62 melanoma) [µM]	TGI (HOP-62 NSCLC) [µM]	TGI (HCT-15 colon) [µM]	TGI (HS 578T breast) [µM]	TGI (DU-145 prostate) [µM]	TGI (MDA-MB-231 breast) [µM]
O=C1[C@@H]2C(c3ccccc3[N+](=O)[O-])=[N+](c3ccccc3)O[C@@H]2C(=O)N1c1ccc(Cc2ccc(N3C(=O)[C@H]4C(c5ccccc5[N+](=O)[O-])=[N+](c5ccccc5)O[C@H]4C3=O)cc2)cc1	49.9	> 100	> 100	> 100	> 100	> 100	> 100	> 100	> 100	> 100	> 100	> 100	> 100	> 100	> 100	> 100	> 100			
CCOC(=O)C(C(=O)OCC)c1ccc([N+](=O)[O-])o1	26.6	9.41	31.2	19.8	> 100	29	36.8	42.1	9.94	34.1	44.9	> 30.7	32.1	> 100	35.9	> 75.5	33.6			
Cc1cc(C)n(-c2ccnc3cc(Cl)ccc23)n1	> 100	> 100	> 100	> 100	> 100	> 100	> 100	> 100	> 100	> 100	> 100	> 100	> 100	> 100	> 100	> 100	> 100			
COc1ccc(-c2c3c(n(C4OC(COC(C)=O)C(OC(C)=O)C(OC(C)=O)C4OC(C)=O)c(=S)c2C#N)CCC3)cc1 (stereo unspecified)	> 100	> 100	> 100	> 100	> 100	> 100	> 100	> 100	> 100	> 100	> 100	> 100	> 100	> 100	> 100	> 100	> 100	> 100	> 100	
N#CC1=C(c2ccccc2)C(=C2Nc3ccccc3N2)C2S/C(=C\c3ccccc3)C(=O)N2C1=N (stereo unspecified)	6.56	3.43	14.3	7.79	3.62	3.74	5.54	4.71	15.8	4.05	10.2	50.5	5.84	11.7	4.76	5.1	10.3			
Cc1cc(C)c(O)c(CN2CCN(C(C)C)CCN(C(C)C)CC2)c1	26.2	42.6		47.3		82.9	> 100	18.1	> 100	> 100	> 100	> 100	> 100	> 100	> 100		> 100	> 100	> 100	> 100
O=C(c1nc2ccccc2[nH]c1=O)C(O)c1ccco1 (stereo unspecified)	> 100	> 100	> 100	> 100	> 100	> 100	> 100	> 100	> 100	> 100	> 100	> 100	> 100	> 100	> 100	> 100	> 100			
CCOC(=O)C1(N)CCc2[nH][nH]c(=O)c2C1 (stereo unspecified)	> 100	> 100	> 100	> 100	> 100	> 100	> 100	> 100	> 100	> 100	> 100	> 100	> 100	> 100	> 100	> 100	> 100	> 100		> 100
CC(C)(C)OC(=O)NC(Cc1ccc(O)cn1)C(=O)O (stereo unspecified)		> 100	> 100	> 100		> 100	> 100	> 100	> 100		> 100	> 100	> 100	> 100		> 100	> 100	> 100	> 100	> 100
O=C(NNC1=NCCCCN1)Nc1ccc(Cl)cc1		> 100	> 100	72.4	> 100	> 100	> 100	> 100	> 100	> 100	> 100	> 100	> 100	> 100	> 100	> 100	> 100	> 100		
O=C(CC(C(=O)c1cccs1)c1ccsc1)c1ccccc1 (stereo unspecified)	> 100	> 100	> 100	> 100	> 100	> 100	> 100	> 100	> 100		> 100		> 100		> 100	> 100	> 100	> 100	> 100	96.9
Cc1ccc(N=NC(=Nc2ccc(Cl)cc2)c2ccc(N(CCC#N)CCC#N)cc2)cc1	> 100		> 100	> 100	> 100	> 100	59.5	> 100	> 100		> 100	> 100	> 100	> 100	> 100	> 100	> 100	> 100	> 100	81.8
C=CCN1COc2c(cc3c4c(cccc24)C(=O)O3)C1	50.1	> 10	51.8	64.9	> 100	40.8	> 100	> 100	62.7	> 100	> 100	68.6	> 100	> 100	36.8	> 100	50			
COc1cc2oc(-c3ccc4c(c3)OCO4)c(OC)c(=O)c2c(OC)c1O	> 100	> 100	> 100	> 100	> 100	> 100	> 100	> 100	> 100		> 100	> 100	> 100	> 100	> 100	> 100	> 100	> 100	> 100	> 100
CCCN(CCC)C(=S)N/N=C/c1ccccn1	0.281	13.4	> 37.4		28.6	4	> 25.4		28.6	14.9	0.187		21.4	32.1	1.91	3.18	16.8	> 100	> 43.8	
C=C/C(C)=C\CC1[C@](C)(O)CC[C@H]2C(C)(C)C(O)CC[C@]12C (stereo partly specified)	> 100	> 100	> 100	> 100		> 100	> 100	> 100	> 100	> 100	> 100	> 100	> 100	> 100	> 100		> 100	> 100	> 100	> 100
C[Si](C)(N[Si](C)(C)OCCc1ccccc1)OCCc1ccccc1	> 100	> 100	> 100		> 100	> 100	> 100	> 100	> 100	> 100	> 100		> 100	> 100	> 100	> 100	> 100		> 100	
O=c1c2ccccc2nc(/C=C(\O)c2ccncc2)n1-c1ccc(Cl)cc1	> 100		> 100	> 100	> 100	> 100	> 100		> 100	> 100	> 100	> 100	> 100	> 100	> 100	> 100	> 100			
CCN(CC)C1CCC(C2c3cc4c(cc3OC(N3CCOCC3)C2C)OCO4)CC1 (stereo unspecified)	> 69.3	> 100	25.7	> 68.2		> 100	> 100	> 100	> 100	42.2	> 100	> 100	96.9	> 100	> 100	> 70.3	> 100	> 72.1	> 100	
Cc1nn2c(nc1=O)sc1ccc3ccccc3c12	> 100	> 100	> 100	> 100	> 100	> 100	> 100	> 100	> 100	> 100	> 100	> 100	> 100	> 100	> 100	> 100	> 100			
COc1ccc2nc3c([N+](=O)[O-])ccc(NCCCN(C)C)c3c(NCCCN(C)C)c2c1	> 10	3	2.56	1.26	4.14			4.07	6.22			5.89			> 10	3.07	2.86		> 10	2.87
O=C(O)c1nc2ccc(C(F)(F)F)cc2nc1NCc1ccc(Cl)c(Cl)c1	31.6	29.8	28.5	34.2	38.5	26.2	28.3	30.7	47.2	27.8	30.8	42.1	26.3	25.1	32.5	32.2	36.5		32.5	34.5
O=C(O)COc1ccc(C(=O)/C(SS/C(C(=O)c2ccc(OCC(=O)O)c(Cl)c2Cl)=C2\C=C(c3ccc(Cl)cc3)SS2)=C2/C=C(c3ccc(Cl)cc3)SS2)c(Cl)c1Cl	26.3	15.3	> 100	12.6	> 100	16.9	15.4	76.2	11.5	33.7	35.6	10.7	> 100	> 100	25.7	> 100	18.1			
Cc1ccc(-c2n[nH]c(=O)n2NC(=O)c2ccccc2C(=O)O)cc1	> 100	> 100	> 100	> 100		> 100	> 100	> 100	> 100	> 100	> 100	> 100		> 100	> 100	> 100	> 100	> 100	> 100	> 100
O=c1cc(CSc2c(-c3ccccc3)c(=O)n(-c3ccccc3)c(=S)n2-c2ccccc2)[nH]c(=O)[nH]1	> 100		> 100	> 100	> 100	> 100	> 100	> 100	> 100	> 100	> 100	> 100	> 100	> 100	> 100	> 100	> 100		> 100	> 100
COc1cc(O)c2c(c1)O[C@@H]1OCC[C@H]21	> 100	> 100	> 100	> 100	> 100	> 100	> 100	> 100	> 100	> 100	> 100	> 100	> 100	> 100	> 100	> 100	> 100			
